Laboratory results as given in patent publication US20210386792A1, “A METHOD FOR INCREASING POPULATION OF SPERMATOGONIAL STEM CELLS” (priority 2018, published 2021).

Columns and labels:
[1] = tested on: LuECs; assay: GDNF ELISA in conditioned media from LuECs; type: cell-based; details: mouse LuECs
Method: (§1) Testis, lung, or liver ECs were plated (10,000 cells ml^−1) on 12 well dishes coated with 0.1% gelatin and cultured for 24 hours. Conditioned media was harvested at 24 and 48 hours after FGF-2 (2 ng ml^−1, 20 ng ml^−1 and 50 ng ml^−1) treatment and analyzed by ELISA for GDNF (Promega GDNF Emax immunoassay system, #G7621) following the manufacturer's instruction. Statistics was analyzed using Graph Pad Prism. For quantification of Gdnf mRNA, total RNA was isolated from the cells using Direct-zol RNA MiniPrep (Zymo Research) and reverse transcribed using High Capacity cDNA Reverse Transcription Kit (Appliedbiosystems), according to the manufacturer's instructions. All gene expression levels were normalized to GAPDH mRNA levels.
(§2) FIG. 2. a. Quantication of GDNF by ELISA in conditioned media from TECs, LuECs and LiECs after treatment with the indicated concentration of FGF-2 for 2 days, n=3. Bar=100 μm. Data are presented as the mean±s.e.m. b. Representative brighteld (BF) and GFP images of 2D cultures of GFP+ SSCs co-cultured with STO cells or TECs plus exogenous GDNF and FGF-2 on days 1 and 8 after seeding. Quantication of stem cell numbers 8 days after co-culture with STO or TECs and the average colony area are shown on the right, n=3. Data are presented as the mean±s.e.m. Bar=100 μm. *P<0.05. c. […]

[2] = tested on: LiECs; assay: GDNF ELISA in conditioned media from LiECs; type: cell-based; details: mouse LiECs
Method: as §1, §2

fibroblast growth factor-2 [FGF-2]
GDNF production in conditioned media of LuECs after FGF-2 treatment [1]: not | GDNF production in conditioned media of LiECs after FGF-2 treatment [2]: not
